Assay [1] has as its target recombinant PtCAD protein (Populus tremuloides, UniProt Q9M632). The assay is described as follows: Kinetic properties of the recombinant PtCAD protein (HPLC-UV/MS). The format is biochemical. As to conditions: substrate of PtCAD; relative, coniferaldehyde = 100. On the procedure: To characterize the enzyme pH optima, the substrate and recombinant PtCAD or PtSAD protein concentrations described above were used in sodium phosphate buffers, pH 5 to 8.5. […] For inhibition kinetics, the PtCAD-mediated reduction of sinapaldehyde (1 to 200 μM) was assayed in the presence of 1 to 5 μM coniferaldehyde, and the PtSAD-catalyzed reduction of coniferaldehyde (1 to 200 μM) was assayed in the presence of 1 to 5 μM sinapaldehyde. All reactions were terminated by the addition of 10 μL of 6 N HCI (to bring the pH to 2) and 500 ng of internal standard o-coumaric acid and analyzed by HPLC-UV/MS. An aliquot of 100 μL of reaction mixture was injected directly onto a Supelcosil LC-ABZ column (15 cm×4.6 mm×5 μm; Supelco, Bellefonte, Pa.) with automatic sample injection and separated isocratically with a Hewlett-Packard (HP) 1100 liquid chromatography system at 40° C. and a flow rate of 0.25 mL/min. […] The reaction products were identified and confirmed by comparing the ion fragmentation patterns of the product and the authentic standard in MS scanning mode at 70 V. The product quantity and Km, Vmax, kcat, and apparent inhibition constant (Ki) values (means±SE) were determined as described (Osakabe et al., 1999; Li et al., 2000). The results of the inhibition kinetics for both the CAD enzyme (i.e. Table 2) and the SAD enzyme (i.e., Table 3) using a variety of substrates are illustrated below.

In assay [2] the test system is PtSAD recombinant protein. The assay is described as follows: SAD enzyme activity assay, single and mixed substrates (HPLC-MS). The format is biochemical, Populus tremuloides. The note with it: mixture of coniferaldehyde and sinapaldehyde, pH 7.0. The protocol:
After 10 min at 30° C., the reaction was terminated and extracted with 0.5 ml ethyl acetate. The extraction was repeated 4 times and the combined ethyl acetate was evaporated and dissolved in the HPLC mobile phase for LC-MS identification and quantitation of the reaction products as we did before (Osakabe et al., 1999; Li et al. 2000). […] The SAD reactions with mixed substrates, sinapaldehyde and coniferyl aldehyde, were therefore conducted at the optimal pH 7.0 under above-described conditions. […] To characterize the enzyme pH optima, the substrate and recombinant PtCAD or PtSAD protein concentrations described above were used in sodium phosphate buffers, pH 5 to 8.5. All reactions were for 10 minutes at 30° C. An aliquot of 100 μL of reaction mixture was injected directly onto a Supelcosil LC-ABZ column (15 cm×4.6 mm×5 μm; Supelco, Bellefonte, Pa.) with automatic sample injection and separated isocratically with a Hewlett-Packard (HP) 1100 liquid chromatography system at 40° C. and a flow rate of 0.25 mL/min. […] The reaction products were identified and confirmed by comparing the ion fragmentation patterns of the product and the authentic standard in MS scanning mode at 70 V. The product quantity and Km, Vmax, kcat, and apparent inhibition constant (Ki) values (means±SE) were determined as described (Osakabe et al., 1999; Li et al., 2000). The results of the inhibition kinetics for both the CAD enzyme (i.e. Table 2) and the SAD enzyme (i.e., Table 3) using a variety of substrates are illustrated below.

We go through one compound from US6812377B2, “Genetic engineering of syringyl-enriched lignin in plants” (Board of Control of Michigan Technological University, priority 2000, dated 2004).

The structures appear in SMILES notation.

Sequence of recombinant PtCAD protein (Q9M632 entry or part of it): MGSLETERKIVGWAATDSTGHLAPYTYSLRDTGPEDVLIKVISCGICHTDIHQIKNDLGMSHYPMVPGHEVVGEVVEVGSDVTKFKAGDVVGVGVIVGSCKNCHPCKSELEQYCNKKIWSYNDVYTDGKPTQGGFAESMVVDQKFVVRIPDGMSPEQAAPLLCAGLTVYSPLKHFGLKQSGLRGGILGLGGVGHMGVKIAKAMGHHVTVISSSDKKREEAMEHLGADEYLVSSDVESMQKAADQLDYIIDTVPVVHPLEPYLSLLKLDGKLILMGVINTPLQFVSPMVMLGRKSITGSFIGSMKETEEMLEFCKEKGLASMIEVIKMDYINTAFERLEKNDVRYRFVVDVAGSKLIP

With `COc1cc(/C=C/C=O)ccc1O` [Coniferaldehyde], the Vmax/Km in assay [1] came to 100%. Further, the “reaction of PtSAD with the substrate in a mixture” value in assay [2] was “would not react”.
